Experimental data: US20230374007A1, “COMPOUNDS AND THEIR USE IN TREATING CANCER” (AstraZeneca AB, priority 2020, published 2023)

Molecular target: T1, cereblon (CRBN)—DNA damage protein 1 (DDB1) complex (Homo sapiens, UniProt Q96SW2)
T1 construct: encoding amino acid residues 1 to 442 (Uniprot Q96SW2); hexahistidine (N); thrombin cleavage site (N); made in house; host or cells: Sf9 insect cells (baculovirus co-infection)
Assay: Cereblon HTRF binding assay
Excerpt: The synthesized sequence was designed to encode an N-terminal hexahistidine tag, a thrombin cleavage site, an AviTag™ and a tobacco etch virus protease (TEV) cleavage site followed by the CBRN sequence. The resulting protein sequence is listed below.
The synthesized sequence was designed to encode an N-terminal hexahistidine tag, a tobacco etch virus protease (TEV) cleavage site followed by the DDB1 sequence. […] The linker amino acid residues are underlined and shown in italics.
Baculovirus production of CBRN and DDB1: Recombinant bacmid and P2 virus of CBRN and DDB1 was generated according to the Bac-to-Bac Baculovirus Expression System manual (ThermoFisher Scientific).
Protein Purification: Protein purification was initiated by thawing cells (resuspended in Lysis buffer) at r.t. Once thawed, NaCl was added to a final concentration of 200 mM, followed by 0.01 μL/mL Benzonase™ and the lysate was incubated with slow stirring for 20 minutes. After the freeze-thaw lysis, the whole cell lysate was centrifuged at 48 000 g for 45 minutes and all following purification steps were done on ice or in cold-room. Supernatant (cell lysate) was mixed with 1 mL/50 mL lysate Ni Sepharose™ 6 Fast Flow (Cytiva) pre-equilibrated with Wash buffer (50 mM Tris-Cl pH 8, 20 mM Imidazole, 500 mM NaCl, 10% Glycerol, 1 mM TCEP) and incubated with slow stirring for 1 h. The mix was loaded in a 70 mL open gravity flow column, washed with 10 bed volumes of Wash buffer, and stepwise eluted with 300 mM imidazole in Wash buffer. […] After biotinylation, the CBRN/DDB1 complex was purified by Size Exclusion Chromatography on a HiLoad™ 26/60 Superdex™ 200 column equilibrated in SEC buffer (50 mM HEPES pH 7.5, 200 mM NaCl, 5% glycerol, 1 mM TCEP) before flash-freezing in liquid nitrogen and storage at −80° C.
The assay mixture in a total volume of 4 μL consists of 50 mM Tris-HCl at pH 7.5, 100 mM NaCl, 0.01% Pluronic F127, 1 mM TCEP, 500 μM EDTA, 0.2 nM CRBN-DDB1, 0.2 nM terbium cryptate labeled streptavidin, and 2 nM Cyanine 5-labeled lenalidomide as the probe. […] Reagents were dispensed into the 384-well assay microplate using a Certus Flex liquid dispenser. After incubation for 2 h at r.t., the assay plates were read on a PHERAstar FSX plate reader (BMG Labtech) in the HTRF mode. The raw data from PHERAstar was directly imported into Genedata Screener for analysis. […] The ratio was normalized to positive and negative controls on the same plates to calculate percent inhibition: I %=(I−NC)/(PC−NC), where I are readings from the compound treated well, NC and PC are average readings from negative control wells and positive control wells, respectively. IC50 values were obtained by fitting the I % vs. compound concentration [I] to I %=S0+(SInf−S0)/(1+((IC50/[I])^n)), where S0 is the fitted activity level at zero concentration of test compound, SInf is the fitted activity level at […] concentration of test compound, and n is the hill coefficient of the curve.
The IC50 values reported below are the calculated mean result of one or more experiments.

T1 sequence (Q96SW2 with tags, fused parts or gaps): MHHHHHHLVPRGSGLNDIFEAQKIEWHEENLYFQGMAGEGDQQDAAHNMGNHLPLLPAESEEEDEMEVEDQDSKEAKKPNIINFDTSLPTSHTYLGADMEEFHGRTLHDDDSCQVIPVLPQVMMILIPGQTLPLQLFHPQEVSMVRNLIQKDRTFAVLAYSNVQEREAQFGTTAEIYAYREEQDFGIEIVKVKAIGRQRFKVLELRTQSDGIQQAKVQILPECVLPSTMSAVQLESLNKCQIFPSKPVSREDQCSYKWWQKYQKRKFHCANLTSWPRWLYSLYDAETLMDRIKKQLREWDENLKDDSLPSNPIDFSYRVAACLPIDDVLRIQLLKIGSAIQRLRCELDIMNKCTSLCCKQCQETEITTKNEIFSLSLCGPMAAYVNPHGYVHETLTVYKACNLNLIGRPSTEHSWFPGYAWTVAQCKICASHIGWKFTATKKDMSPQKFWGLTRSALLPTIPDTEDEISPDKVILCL

SMILES	IC50 [µM]
CN1CCN(c2ccc(N3CCC(=O)NC3=O)c3ccn(C)c23)CC1 [Example 126, 1-(1-Methyl-7-(4-methylpiperazin-1-yl)-1H-indol-4-yl)dihydropyrimidine-2,4 (1H,3H)-dione]	0.577
COc1cc2cc[nH]c2cc1N1CCC(=O)NC1=O [Example 61, 1-(5-Methoxy-1H-indol-6-yl)dihydropyrimidine-2,4 (1H,3H)-dione]	1.51
O=C1CCN(c2ccc3cn(C4CCNCC4)nc3c2)C(=O)N1 [Example 109, 1-(2-(Piperidin-4-yl)-2H-indazol-6-yl)dihydropyrimidine-2,4 (1H,3H)-dione]	1.03
COCc1cc(N2CCC(=O)NC2=O)c2ccn(C)c2c1 [Example 19, 1-(6-(Methoxymethyl)-1-methyl-1H-indol-4-yl)dihydropyrimidine-2,4 (1H,3H)-dione]	0.43
O=C1CCN(c2ccc3sc(N4CCNCC4)nc3c2)C(=O)N1 [Example 100, 1-(2-(Piperazin-1-yl)benzo[d]thiazol-5-yl)dihydropyrimidine-2,4 (1H,3H)-dione]	1.07
O=C1CCN(c2c(F)ccc3[nH]ccc23)C(=O)N1 [Example 63, 1-(5-Fluoro-1H-indol-4-yl)dihydropyrimidine-2,4 (1H,3H)-dione]	0.235
O=C1CCN(c2ccc3nc[nH]c3c2)C(=O)N1 [Example 41, 1-(1H-Benzo[d]imidazol-6-yl)dihydropyrimidine-2,4 (1H,311)-dione]	1.17
O=C1CCN(c2ccc3c(c2)NCC3)C(=O)N1 [Example 22, 1-(Indolin-6-yl)dihydropyrimidine-2,4 (1H,3H)-dione]	0.487
CN1CCC(n2cc3ccc(N4CCC(=O)NC4=O)cc3n2)CC1 [Example 110, 1-(2-(1-Methylpiperidin-4-yl)-2H-indazol-6-yl)dihydropyrimidine-2,4 (1H,3H)-dione]	0.655
O=C1CCN(c2ccc3[nH]cc(N4CCNCC4)c3c2)C(=O)N1 [Example 77, 1-(3-(Piperazin-1-yl)-1H-indol-5-yl)dihydropyrimidine-2,4 (1H,3H)-dione]	0.562
CN1CCC(c2cc3c(N4CCC(=O)NC4=O)cccc3n2C)CC1 [Example 89, 1-(1-Methyl-2-(1-methylpiperidin-4-yl)-1H-indol-4-yl)dihydropyrimidine-2,4 (1H,3H)-dione]	1.21
O=C1CCN(c2ccc3cc(C4CCNCC4)[nH]c3c2)C(=O)N1 [Example 81, 1-(2-(Piperidin-4-yl)-1H-indol-6-yl)dihydropyrimidine-2,4 (1H,3H)-dione]	0.065
CN1CCC(c2cc3c(N4CCC(=O)NC4=O)cccc3[nH]2)CC1 [Example 87, 1-(2-(1-Methylpiperidin-4-yl)-1H-indol-4-yl)dihydropyrimidine-2,4 (1H,3H)-dione]	0.379
Cn1ccc2cc(N3CCC(=O)NC3=O)cnc21 [Example 11, 1-(1-Methyl-1H-pyrrolo[2,3-b]pyridin-5-yl)dihydropyrimidine-2,4 (1H,3H)-dione]	26.9
O=C1CCN(c2ccc3cc[nH]c3c2F)C(=O)N1 [Example 54, 1-(7-Fluoro-1H-indol-6-yl)dihydropyrimidine-2,4 (1H,3H)-dione]	0.188
CN1CCC(c2cn(C)c3cc(N4CCC(=O)NC4=O)ccc23)CC1 [Example 119, 1-(1-Methyl-3-(1-methylpiperidin-4-yl)-1H-indol-6-yl)dihydropyrimidine-2,4 (1H,3H)-dione]	1.45
CNC(=O)Cn1ccc2c(N3CCC(=O)NC3=O)cccc21 [Example 70, 2-(4-(2,4-Dioxotetrahydropyrimidin-1 (2H)-yl)-1H-indol-1-yl)-N-methylacetamide]	1.01
N#Cc1ncc(N2CCC(=O)NC2=O)c2cc[nH]c12 [Example 135, 4-(2,4-dioxotetrahydropyrimidin-1 (2H)-yl)-1H-pyrrolo[2,3-c]pyridine-7-carbonitrile]	0.594

SMILES	IC50 [µM]
CC(=O)N1CCC(c2c[nH]c3cc(N4CCC(=O)NC4=O)ccc23)CC1 [Example 118, 1-(3-(1-Acetylpiperidin-4-yl)-1H-indol-6-yl)dihydropyrimidine-2,4 (1H,3H)-dione]	0.389
O=C1CCN(c2ccc3c(N4CCNCC4)c[nH]c3c2)C(=O)N1 [Example 71, 1-(3-(Piperazin-1-yl)-1H-indol-6-yl)dihydropyrimidine-2,4 (1H,3H)-dione]	1.13
CN1Cc2ccc(N3CCC(=O)NC3=O)cc2C1 [Example 25, 1-(2-Methylisoindolin-5-yl)dihydropyrimidine-2,4 (1H,3H)-dione]	2.96
CN(C)c1cc(N2CCC(=O)NC2=O)cc2[nH]ccc12 [Example 133, 1-(4-(Dimethylamino)-1H-indol-6-yl)dihydropyrimidine-2,4 (1H,3H)-dione]	2.82
Cc1cc(N2CCC(=O)NC2=O)cc2[nH]ccc12 [Example 51, 1-(4-Methyl-1H-indol-6-yl)dihydropyrimidine-2,4 (1H,3H)-dione]	0.511
Cn1c(=O)oc2cc(N3CCC(=O)NC3=O)ccc21 [Example 12, 1-(3-Methyl-2-oxo-2,3-dihydrobenzo[d]oxazol-6-yl)dihydropyrimidine-2,4 (1H,3H)-dione]	11
CN1CCN(c2noc3cc(N4CCC(=O)NC4=O)ccc23)CC1 [Example 94, 1-(3-(4-Methylpiperazin-1-yl)benzo[d]isoxazol-6-yl)dihydropyrimidine-2,4 (1H,3H)-dione]	4.2
O=C1NC(=O)N(c2ccc3cc[nH]c3c2)CC1F (centres unmarked) [Example 45, 5-Fluoro-1-(1H-indol-6-yl)dihydropyrimidine-2,4 (1H,3H)-dione]	0.967
O=C1CCN(c2ccc3[nH]c(=O)oc3c2)C(=O)N1 [Example 46, 1-(2-Oxo-2,3-dihydrobenzo[d]oxazol-6-yl)dihydropyrimidine-2,4 (1H,3H)-dione]	3.75
CN1CCN(c2c[nH]c3cc(N4CCC(=O)NC4=O)ccc23)CC1 [Example 72, 1-(3-(4-Methylpiperazin-1-yl)-1H-indol-6-yl)dihydropyrimidine-2,4 (1H,3H)-dione]	0.926
O=C1CCN(c2cc(F)c3cc[nH]c3c2)C(=O)N1 [Example 50, 1-(4-Fluoro-1H-indol-6-yl)dihydropyrimidine-2,4 (1H,3H)-dione]	0.226
O=C1CCN(c2ccc3cn[nH]c3c2)C(=O)N1 [Example 42, 1-(1H-Indazol-6-yl)dihydropyrimidine-2,4 (1H,3H)-dione]	2.11
CN1CCN(c2cn(C)c3cc(N4CCC(=O)NC4=O)ccc23)CC1 [Example 75, 1-(1-Methyl-3-(4-methylpiperazin-1-yl)-1H-indol-6-yl)dihydropyrimidine-2,4 (1H,3H)-dione]	4.04
O=C1CCN(c2ccc3sccc3c2)C(=O)N1 [Example 130, 1-(Benzo[b]thiophen-5-yl)dihydropyrimidine-2,4 (1H,3H)-dione]	0.706
O=C1CCN(c2cccc3ncsc23)C(=O)N1 [Example 2, 1-(Benzo[d]thiazol-7-yl)dihydropyrimidine-2,4 (1H,3H)-dione]	2
COc1cc(N2CCC(=O)NC2=O)c2ccn(C)c2c1 [Example 16, 1-(6-Methoxy-1-methyl-1H-indol-4-yl)dihydropyrimidine-2,4 (1H,3H)-dione]	0.211
CN1CCC(n2ccc3cc(N4CCC(=O)NC4=O)ccc32)CC1 [Example 114, 1-(1-(1-Methylpiperidin-4-yl)-1H-indol-5-yl)dihydropyrimidine-2,4 (1H,3H)-dione]	1.05
